Source: patent US20080279843A1, “Method For Improving Insulin Sensitivity By Administering an Inhibitor of Antitrypsin” (Essential SkinCare, LLC, priority 2003, published 2008)

Legend:
[1] = tested on: C57/Black female mice; test: Glucose tolerance test with insulin and purified AT (Example 3); type: in vivo; details: highly purified AT 1.2 mg/mouse i.p. 24 h prior to insulin; glucose 3 g/kg i.p.
Protocol: C57/Black female mice weighing 23-25 g were fasted for 16 hours. Five animals were used for each of the three treatment groups. The first treatment group received intraperitoneal injections of 1200 μg purified AT, i.e. AT purified by the procedure of Example 1. Exactly 23 hours and 45 minutes after the AT was administered to the first treatment group, the animals in the first and second treatment group received 0.5 I.U. of insulin. Exactly 15 minutes after the insulin was administered (i.e., 24 hours after AT was administered to the first treatment group), glucose (3 g/kg) was injected intraperitoneally into the first, second and third treatment group. Blood samples were immediately measured with the fast Glucose C test (Wako Chemicals Inc. Richmond, Va., USA). The data presented are the mean ±S.D. of five determinations, one with each animal.

[2] = tested on: C57/Black female mice; test: Glucose tolerance test with purified AT alone (Example 4); type: in vivo; details: mice fasted 24 h; for Glucose level: purified AT 1200 μg i.p. 24 h before glucose 3 g/kg i.p., mean ± S.D., n=4
Protocol: C57/Black female mice, weighing 22-25 g were fasted for 24 hours. Four animals were used for each of two groups. The first group received intraperitoneal injections of 1200 μg purified AT, i.e. AT purified by the procedure of Example 1. Exactly 24 hours after the AT was administered to the first group, glucose (3 g/kg) was injected intraperitoneally into mice in both groups. Blood samples were immediately measured with the fast Glucose C test (Wako Chemicals Inc. Richmond, Va., USA). The experiment was repeated a second time.
The data presented for each experiment are the mean ±S.D. of four determinations, one with each animal.

[3] = highly purified AT 1200 μg i.p. 24 h before glucose 3 g/kg i.p.

## α1-antitrypsin [AT]
[1]
  Effect of AT on the action of insulin on blood glucose level: blocked the action of insulin
[2]; Experiment 1, 0 min
  Glucose level: 2.3 ± 0.3 mM
[2]; Experiment 1, 30 min
  Glucose level: 8.5 ± 0.6 mM
[2]; Experiment 1, 60 min
  Glucose level: 7.1 ± 0.5 mM
[2]; Experiment 1, 120 min
  Glucose level: 6.1 ± 0.4 mM
[2]; Experiment 1, 180 min
  Glucose level: 4.7 ± 0.5 mM
[2]; Experiment 2, 0 min
  Glucose level: 2.7 ± 0.3 mM
[2]; Experiment 2, 30 min
  Glucose level: 7.9 ± 0.3 mM
[2]; Experiment 2, 60 min
  Glucose level: 6.5 ± 0.5 mM
[2]; Experiment 2, 120 min
  Glucose level: 5.9 ± 0.4 mM
[2]; Experiment 2, 180 min
  Glucose level: 4.5 ± 0.4 mM
[2]; [3]
  Effect of AT on blood glucose level in the first 60 min after glucose: no major effects in the first 60 min
  Effect of AT on return of blood glucose level to near-normal level during the next 120 min: clearly delayed return of blood glucose level to near-normal level
